This note sets out measurements from patent publication US20220304941A1, “COMPOSITION FOR PREVENTING OR TREATING ORAL DISEASES” (TECOZYME INC, priority 2019, published 2022).

The test system of data set [1] is bacteria in plaque. Kind of data set: Antibacterial test of 1,2,3-butanetriol: growth of cultured plaque bacteria, absorption at 600 nm. It is filed as cell-based, oral bacteria. To be noted: FIG. 2. The procedure:
Subsequently, to examine the effect of inhibiting bacterial activity in plaque, bacterial strains were prepared as follows. First, plaque was collected from three research participants, and was cultured in a BHI medium (Bovine Heart Infusion 4 g/160 ml distilled water-DDW) with 1 wt. % sucrose added for 24 hours. From the above cultured strain, gDNA was extracted, and the bacteria were identified through PCR. BHI medium (Bovine Heart Infusion 4 g/160 ml distilled water-DDW) with 1wt. % sucrose added was prepared and sterilized in a high-temperature and high-pressure autoclave. Then, 1,2, 3-butanetriol (1,2,3-BT) was dispensed to each concentration, and a 96-well microplate containing 180 μl of the culture solution was prepared. Here, 20 μl of the culture solution in which the bacteria in plaque prepared above was proliferated was dispensed per well. This microplate was placed in a Biotek Synergy 2 microplate reader, the temperature was adjusted to 37° C., and the absorption rate was measured at 600 nm.

Data set [2] deals with bacteria in plaque (species of Table 1). Kind of data set: Antibacterial test of 1,2,3-butanetriol: gDNA extraction and PCR per bacterial species. It is filed as cell-based, oral bacteria. To be noted: PCR of gDNA after butanetriol treatment, FIG. 3. From the text:
From the above cultured strain, gDNA was extracted, and the bacteria were identified through PCR. [table] Separately from the absorption rate measurement, gDNA was extracted from the well microplate after treatment with butanetriol, and the results identified by PCR are shown in FIG. 3.

The test system of data set [3] is human fibroblasts. Kind of data set: Cytotoxicity test: culture viability of human fibroblasts (Cell Counting Kit-8). The format is cell-based. To be noted: 48 hours treatment, FIG. 1. As for the experimental part:
First, to examine the biotoxicity of 1,2,3-butanetriol, culture survival experiments of human fibroblasts according to the concentration change of 1,2,3-butanetriol were conducted.
The initial seeding density was 5000 cells/well based on 96 wells, and the culture conditions were as follows:
Dulbecco's Modified Eagle Medium (DMEM)+Fetal Bovine Serum (FBS) 10%; 37° C., 5% CO2; and 12 hours after seeding, 1,2,3-butanetriol was treated at different concentrations to determine cytotoxicity, and after 48 hours of 1,2,3-butanetriol treatment, Dojindo Cell Counting Kit-8 was dispensed at a rate of 10 μl per well and incubated at 37° C. for 2 hours, then cell viability was measured at 450 nm Absorbance.
FIG. 1 is a graph illustrating the culture viability of human fibroblasts according to the concentration change of 1, 2,3-butanetriol, and the horizontal axis of FIG. 1 indicates the concentration of the treated 1,2,3-butanetriol in an mM unit.
For orientation: Tetrazolium assays rely on reduction of a dye to a coloured formazan, in cell work by metabolically active cells.

Some results are limits rather than exact numbers.

Turning to `CC(O)C(O)CO` (racemic) [1,2,3-butanetriol], the “effect of inhibiting bacterial growth (at least)” value in data set [1] (12 hours after culturing, compared to no 1,2,3-butanetriol treatment, lowest effect) was “at least 10%”. Further, the “effect of inhibiting bacterial growth (maximum)” value in data set [1] (12 hours after culturing, compared to no 1,2,3-butanetriol treatment, maximum effect) is on record as at least 50%. In data set [1] (plaque bacteria in BHI medium with 1 wt. % sucrose, 37° C.), the bacterial growth entry is recorded as “significantly effectively inhibited”. In addition, the “growth inhibitory effect on each bacterial species” value in data set [2] is “clearly identified”. Besides, the cell viability result is “not significantly reduced” in data set [3] (concentration of about 12.5 mM or less) and “about 50%” in data set [3] (concentration of about 25 mM).
